Measurements published in ChEMBL document CHEMBL1201862, “PubChem BioAssay data set” (2004).
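Results reflect a 48-hour exposure of cells in 96-well plates to compound at five concentrations. The concentration for 50% growth inhibition is given as GI50.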 Calls of active or inactive are those of the source. Cut-off read from the data, not from the text of the source: active = GI50 up to about 1.1 µM and inactive = higher.

Key:
Experiment in all cases: NCI tumour cell line growth inhibition, 48 h
COLO 205 = tested on: COLO 205
DU-145 = tested on: DU-145
EKVX = tested on: EKVX
HL-60 = tested on: HL-60
KM12 = tested on: KM12
M14 = tested on: M14
MCF7 = tested on: MCF7
Malme-3M = tested on: Malme-3M
NCI-H226 = tested on: NCI-H226
NCI-H460 = tested on: NCI-H460
OVCAR-3 = tested on: OVCAR-3
OVCAR-4 = tested on: OVCAR-4
OVCAR-5 = tested on: OVCAR-5
PC-3 = tested on: PC-3
SK-MEL-2 = tested on: SK-MEL-2
SK-MEL-5 = tested on: SK-MEL-5
SR = tested on: SR
SW-620 = tested on: SW-620
HCC 2998 = tested on: HCC 2998

Measured: GI50

N#CC(C#N)=NNc1ccc2cn[nH]c2c1
inactive: COLO 205 25.6 µM | DU-145 29 µM | EKVX 47.3 µM | HL-60 18.6 µM | KM12 > 100 µM | M14 35.6 µM | MCF7 31.1 µM | Malme-3M 28.4 µM | NCI-H226 > 100 µM | NCI-H460 57.3 µM | OVCAR-3 23.9 µM | OVCAR-4 30.7 µM | OVCAR-5 > 100 µM | PC-3 > 100 µM | SK-MEL-2 > 100 µM | SK-MEL-5 74.5 µM | SR 22.6 µM | SW-620 41.1 µM

NCCNc1ncnc2ccc(Cl)cc12
inactive: COLO 205 49.3 µM | DU-145 > 100 µM | EKVX > 100 µM | HL-60 > 100 µM | KM12 > 100 µM | M14 > 100 µM | MCF7 96.8 µM | Malme-3M > 100 µM | NCI-H226 > 100 µM | NCI-H460 32.8 µM | OVCAR-3 > 100 µM | OVCAR-4 > 100 µM | OVCAR-5 > 100 µM | PC-3 75.5 µM | SK-MEL-2 > 100 µM | SK-MEL-5 > 100 µM | SR 45.7 µM | SW-620 72.3 µM

CC1C2(C)OC(=N)C(C#N)(C(c3ccccc3)O2)C1(C#N)C#N (stereo not given)
inactive: COLO 205 16.4 µM | DU-145 31.3 µM | EKVX 21.4 µM | HCC 2998 10.8 µM | HL-60 16.6 µM | KM12 51.5 µM | M14 13.9 µM | MCF7 21.2 µM | Malme-3M 28.3 µM | NCI-H226 > 100 µM | NCI-H460 12.6 µM | OVCAR-3 15.1 µM | OVCAR-5 25.5 µM | PC-3 22.8 µM | SK-MEL-2 16.9 µM | SK-MEL-5 16.7 µM | SW-620 > 10 µM

COc1ccc(O[C@H](CO)C[C@@H]2COC(C)(C)O2)cc1
inactive: COLO 205 > 100 µM | DU-145 > 100 µM | EKVX > 100 µM | HCC 2998 > 100 µM | KM12 > 100 µM | M14 > 100 µM | MCF7 > 100 µM | Malme-3M > 100 µM | NCI-H226 > 100 µM | NCI-H460 > 100 µM | OVCAR-3 > 100 µM | OVCAR-4 > 100 µM | OVCAR-5 > 100 µM | PC-3 > 100 µM | SK-MEL-2 > 100 µM | SK-MEL-5 > 100 µM | SR > 100 µM | SW-620 > 100 µM

C=CCC(NCc1ccccc1)[C@H](OCc1ccccc1)[C@@H]1COC(C)(C)O1 (stereo not given in full)
inactive: COLO 205 14.5 µM | DU-145 97.3 µM | EKVX 32.5 µM | KM12 29.8 µM | M14 36.2 µM | MCF7 29.4 µM | Malme-3M 22.6 µM | NCI-H226 15.6 µM | OVCAR-3 44.9 µM | OVCAR-4 44.7 µM | OVCAR-5 46.2 µM | PC-3 31.9 µM | SK-MEL-2 19.6 µM | SK-MEL-5 23 µM | SR 21.1 µM | SW-620 41.9 µM

CCOC(=O)[C@@H]1C2C(=C[C@H]3[C@H]1C(=O)N1CCCC[C@H]31)CCCN2C(=O)OCc1ccccc1 (stereo not given in full)
inactive: COLO 205 23.9 µM | DU-145 39.1 µM | EKVX 38.3 µM | HCC 2998 15.1 µM | HL-60 20.8 µM | KM12 36.2 µM | M14 38.8 µM | MCF7 29.5 µM | Malme-3M 28.5 µM | NCI-H226 70.5 µM | NCI-H460 23.8 µM | OVCAR-3 30.1 µM | OVCAR-4 37.8 µM | OVCAR-5 76.4 µM | PC-3 28.1 µM | SK-MEL-2 22.8 µM | SK-MEL-5 31.6 µM | SW-620 52.2 µM

Cc1ccc(C(=O)Oc2ccc(/C=C3\CCC/C(=C\c4ccc(OC(=O)c5ccc(C)cc5)cc4)C3=O)cc2)cc1
inactive: COLO 205 > 100 µM | DU-145 > 100 µM | EKVX > 100 µM | HCC 2998 > 100 µM | HL-60 > 100 µM | KM12 > 100 µM | M14 > 100 µM | MCF7 > 100 µM | NCI-H460 > 100 µM | OVCAR-3 > 100 µM | OVCAR-4 > 100 µM | OVCAR-5 > 100 µM | PC-3 > 100 µM | SK-MEL-2 > 100 µM | SK-MEL-5 > 100 µM | SR > 100 µM | SW-620 > 100 µM

CCN1CC(C)Cn2c(=O)[nH]c3cc(Br)cc1c32 (stereo not given)
inactive: COLO 205 11 µM | DU-145 48.8 µM | EKVX 3.3 µM | HCC 2998 32.8 µM | HL-60 7.19 µM | KM12 22.9 µM | M14 34.1 µM | MCF7 17.3 µM | Malme-3M 64.4 µM | NCI-H226 11.9 µM | NCI-H460 30.6 µM | OVCAR-3 20.3 µM | OVCAR-4 12.1 µM | OVCAR-5 70.5 µM | PC-3 30.9 µM | SK-MEL-2 23.9 µM | SK-MEL-5 19.1 µM | SW-620 5.01 µM

Clc1ccc(-c2nn3c(CCCCCCCCc4nnc5sc(-c6ccc(Cl)cc6)nn45)nnc3s2)cc1
inactive: COLO 205 26.6 µM | DU-145 11.7 µM | EKVX 20 µM | HCC 2998 48.3 µM | KM12 11.9 µM | M14 18.7 µM | MCF7 5.81 µM | Malme-3M 45.2 µM | NCI-H226 25.6 µM | NCI-H460 26.9 µM | OVCAR-3 19.8 µM | OVCAR-4 8.85 µM | OVCAR-5 36.3 µM | PC-3 11.5 µM | SK-MEL-2 29.8 µM | SK-MEL-5 13.8 µM | SR 17.1 µM | SW-620 29.2 µM

O=C(Nc1sccc1S(=O)(=O)c1ccc(Cl)cc1)c1ccc(Cl)cc1Cl
inactive: COLO 205 > 100 µM | DU-145 > 100 µM | EKVX > 79.4 µM | HL-60 > 100 µM | KM12 82.2 µM | M14 > 100 µM | MCF7 44.6 µM | Malme-3M > 100 µM | NCI-H226 > 100 µM | NCI-H460 > 95.7 µM | OVCAR-3 28.2 µM | OVCAR-4 > 93.8 µM | OVCAR-5 > 84.5 µM | PC-3 > 100 µM | SK-MEL-2 > 100 µM | SK-MEL-5 47 µM | SR 12.1 µM | SW-620 > 100 µM

Fc1cccc(F)c1C1SCC2=Nc3ccccc3CN21 (stereo not given)
inactive: COLO 205 > 100 µM | DU-145 60 µM | EKVX 79.6 µM | HCC 2998 > 100 µM | HL-60 44.2 µM | KM12 54 µM | M14 91.2 µM | MCF7 35 µM | NCI-H460 71 µM | OVCAR-3 19 µM | OVCAR-4 > 100 µM | OVCAR-5 56 µM | PC-3 30.8 µM | SK-MEL-5 31.4 µM | SR 37.8 µM | SW-620 > 100 µM

CCC(=O)Nc1ccc(NC(C#N)c2cccc(Oc3ccccc3)c2)cc1 (stereo not given)
inactive: COLO 205 40.4 µM | DU-145 48.3 µM | EKVX 67.6 µM | HL-60 13.5 µM | KM12 58.6 µM | M14 40.3 µM | MCF7 35.2 µM | Malme-3M 26.1 µM | NCI-H226 30.3 µM | OVCAR-3 52.4 µM | OVCAR-4 54.1 µM | OVCAR-5 > 100 µM | PC-3 63.4 µM | SK-MEL-2 35 µM | SK-MEL-5 22.6 µM | SR 18.2 µM | SW-620 38.7 µM

C=CC(=C)CCC(Br)C(C)(C)Cl (stereo not given)
inactive: COLO 205 > 100 µM | DU-145 > 100 µM | EKVX > 100 µM | HCC 2998 > 100 µM | HL-60 37.1 µM | KM12 > 100 µM | M14 > 100 µM | MCF7 46.6 µM | Malme-3M > 100 µM | NCI-H226 > 100 µM | NCI-H460 > 100 µM | OVCAR-3 > 100 µM | OVCAR-4 > 100 µM | OVCAR-5 > 100 µM | PC-3 > 100 µM | SK-MEL-2 > 100 µM | SK-MEL-5 > 100 µM | SW-620 > 100 µM

Oc1[nH]c(Nc2ccc(F)c(Cl)c2)nc2ncnc1-2
inactive: COLO 205 > 100 µM | DU-145 > 100 µM | EKVX > 100 µM | HCC 2998 > 100 µM | HL-60 > 100 µM | KM12 > 100 µM | M14 > 100 µM | MCF7 > 100 µM | Malme-3M > 100 µM | NCI-H226 > 100 µM | NCI-H460 > 100 µM | OVCAR-3 > 100 µM | OVCAR-4 > 100 µM | OVCAR-5 > 100 µM | PC-3 > 100 µM | SK-MEL-2 > 100 µM | SK-MEL-5 > 100 µM | SW-620 > 100 µM

NS(=O)(=O)c1ccc(/N=N/c2nc3nc(O)nc(O)c3[nH]2)cc1
inactive: COLO 205 > 100 µM | DU-145 > 100 µM | EKVX > 100 µM | HCC 2998 > 100 µM | KM12 > 100 µM | M14 > 100 µM | MCF7 > 100 µM | Malme-3M > 100 µM | NCI-H226 > 100 µM | NCI-H460 > 100 µM | OVCAR-3 > 100 µM | OVCAR-4 > 100 µM | OVCAR-5 > 100 µM | PC-3 > 100 µM | SK-MEL-2 > 100 µM | SK-MEL-5 > 100 µM | SR 39.8 µM | SW-620 > 100 µM

CCOC(=O)c1c(CN2CCCC2)n(-c2ccccc2)c2cc(Br)c(O)cc12
inactive: COLO 205 10.5 µM | DU-145 19.6 µM | EKVX 17 µM | HL-60 9.44 µM | KM12 16.8 µM | M14 15.5 µM | MCF7 21 µM | Malme-3M 19.5 µM | NCI-H460 17 µM | OVCAR-3 15.9 µM | OVCAR-4 14.3 µM | OVCAR-5 19.1 µM | PC-3 21.3 µM | SK-MEL-2 18.3 µM | SK-MEL-5 13.4 µM | SR 18.7 µM | SW-620 17.7 µM
